Results from the NIST ThermoML archive (doi:10.1021/je900372v).
Several values for one entry are separate records, joined by “and”; a condition that tells them apart may be missing. Equal entries are not always repeated.

Conditions: Diaphragm manometer

[CH3][Sb]([CH3])[C](C)(C)C [tert-butyldimethylantimony]
Conditions | vapor or sublimation pressure
248.34 K, Crystal | 0.03829 kPa and 0.03817 kPa and 0.03826 kPa
253.33 K, Crystal | 0.05845 kPa and 0.05851 kPa and 0.05854 kPa
258.35 K, Crystal | 0.08805 kPa and 0.08784 kPa and 0.08807 kPa
263.35 K, Crystal | 0.1298 kPa and 0.1299 kPa
268.55 K, Crystal | 0.1898 kPa and 0.19 kPa
273.4 K, Crystal | 0.2687 kPa and 0.2685 kPa
278.29 K, Crystal | 0.374 kPa and 0.3741 kPa
283.32 K, Crystal | 0.5167 kPa and 0.5168 kPa and 0.5164 kPa
288.32 K, Liquid | 0.7023 kPa and 0.7022 kPa
293.29 K, Liquid | 0.9422 kPa and 0.9421 kPa and 0.942 kPa
298.29 K, Liquid | 1.251 kPa
303.28 K, Liquid | 1.642 kPa
308.27 K, Liquid | 2.131 kPa and 2.132 kPa

[CH3][Sb]([CH3])[CH3] [trimethylstibine]
Liquid
Conditions | vapor or sublimation pressure
249.24 K | 0.9742 kPa and 0.9744 kPa
250.24 K | 1.042 kPa
251.23 K | 1.113 kPa and 1.112 kPa
252.21 K | 1.186 kPa
253.21 K | 1.265 kPa and 1.264 kPa
258.19 K | 1.73 kPa
263.24 K | 2.345 kPa and 2.343 kPa
268.3 K | 3.134 kPa and 3.136 kPa
273.35 K | 4.143 kPa
278.36 K | 5.398 kPa and 5.399 kPa and 5.395 kPa
283.33 K | 6.941 kPa and 6.94 kPa and 6.938 kPa
288.27 K | 8.822 kPa and 8.821 kPa
290.71 K | 9.9 kPa and 9.899 kPa
293.24 K | 11.13 kPa
296.22 K | 12.74 kPa and 12.73 kPa
